Values of other authors, collected in patent US20230172854A1 (UNIWERSYTET HUMANISTYCZNO-PRZYRODNICZY IM JANA DLUGOSZA W …, priority 2020, published 2023).

Settings: estimated

bioavailability: 25%
Structure (SMILES): CCCCC(=O)N(Cc1ccc(-c2ccccc2-c2nnn[nH]2)cc1)[C@H](C(=O)O)C(C)C [valsartan]
